# Reference: patent publication EP0332216A1 (priority 1988, dated 1989)
# What was measured:
# [1] = Acute toxicity in mice (intraperitoneal); conditions: mouse, in vivo, ip; JCL/ICR male mice, 5 weeks; administration into the peritoneal cavity; mortality after two weeks; read-out: LD₅₀
# bacteria = assay: Anti-microbial activity in vitro (bacteria); format: cell-based; conditions: concentration of 500 µg/mℓ
# yeast = assay: Anti-microbial activity in vitro (yeast); format: cell-based; conditions: concentration of 500 µg/mℓ
# filamentous fungi = assay: Anti-microbial activity in vitro (filamentous fungi); format: cell-based; conditions: concentration of 500 µg/mℓ
# Solubility to solvent = format: physicochemical
smiles,measurement,setting,value
CC1=C(C(=O)O)COC1=O [F-0368],LD50 at 336 h,[1],~200 mg/kg
same,anti-microbial activity in vitro,bacteria,did not indicate its anti-microbial activity
same,anti-microbial activity in vitro,yeast,did not indicate its anti-microbial activity
same,anti-microbial activity in vitro,filamentous fungi,did not indicate its anti-microbial activity
same,Solubility to Solvent,Solubility to solvent; acetone,Readily soluble
same,Solubility to Solvent,Solubility to solvent; benzene,Non-soluble
same,Solubility to Solvent,Solubility to solvent; chloroform,Non-soluble
same,Solubility to Solvent,Solubility to solvent; ethanol,Readily soluble
same,Solubility to Solvent,Solubility to solvent; ethyl acetate,Soluble
same,Solubility to Solvent,Solubility to solvent; hexane,Non-soluble
same,Solubility to Solvent,Solubility to solvent; methanol,Readily soluble
same,Solubility to Solvent,Solubility to solvent; water,Soluble
